Test results published in US20220323471A1 (priority 2019, published 2022).
Read-outs that look alike come from different tables or passages of the source.

Key:
ZIKV strain MR766 [1] = test: ZIKV strain MR766 infection, 4G2 antibody flow cytometry; details: for IC50: Zika virus
TBEV-RVP = assay type: cell-based, tick-borne encephalitis virus
[2] = system: type I IFN response (IFN-β); test: Type I IFN response (IFN-β induction, qRT-PCR) in ZIKV-challenged CHME3 cells; assay type: cell-based, human; details: ZIKV MR766 MOI 1, 0.1 μM and 1 μM, 48 hours
Source text: ZIKV infection activates the type I IFN response via IFN-stimulated genes that are activated by the host after recognition of viral components. If ZIKV is inhibited at a pre-fusion step, viral nucleic acids and proteins will not be exposed to the host cytosol; thus the type I IFN response will not be activated. To test whether DGP treatment prevents activation of the type I IFN response, CHME3 cells we challenged using ZIKV MR766 at an MOI of 1 in the presence of different DGP concentrations. At 48 hours post-challenge, the type I IFN response was assessed using qRT-PCR to measure IFN-β induction (FIG. 5).
ZIKV RNA levels were measured using real-time PCR. HT1080 and VERO cells were challenged by ZIKV MR766 at an MOI of 1 in the presence of DGP. At 48 hours post-challenge, cells were lysed and total RNA was extracted using trizol. Total RNA was used to determine the levels of ZIKV RNA by real-time PCR using specific primers against ZIKA. qRT-PCR was carried out using SYBR green in a 20-μl final volume using a MASTERCYCLER proS machine. The primers used to detect ZIKV were: SEQ ID NO. 1: 5′-TT […]-3′-Forward (Genome Position 941-964) and SEQ ID NO. 2: 5′-[…]-3′-Reverse (Genome position 1123-1103) (AY632535.2). For the detection of SeV, the following primers were used: SEQ ID NO. 3: 5′-[…]-3′-Forward (Genome position 210-233) and SEQ ID NO. […]

SARS-CoV-2-GFP = assay type: cell-based
ZIKV-RVP = assay type: cell-based, Zika virus; details: VERO, HT1080, CHME3 cells; MOI 0.5; 48 hours
ZIKV strain MR766 [3] = test: ZIKV-induced mortality in Ifnar1−/− mice; assay type: in vivo, mouse (C57BL/6 Ifnar1−/−)

COc1cc2c(OC3OC(C)C(O)C(O)C3O)c3c(c(-c4ccc5c(c4)OCO5)c2cc1OC)C(=O)OC3 (stereo not drawn) [DGP, 6-deoxyglucose-diphyllin]
percentage of 4G2-positive cells (ZIKV strain MR766 [1]; CHME3 cells, MOI 1, DGP 0.1 and 1 μM, NH4Cl 20 mM, 48 hours): substantial decrease | potency of DGP relative to diphyllin (ZIKV strain MR766 [1]; HT1080 and CHME3 cells): 3-5 fold | concentration giving substantial inhibition of ZIKV infection (ZIKV strain MR766 [1]; VERO, HT1080, CHME3 cells, MOI 1, 48 hours): 0.25 to 0.50 µM | IC50 (ZIKV strain MR766 [1]; HT-1080, read-out: IC50, ZIKV infection): 0.02 µM | IC50 (ZIKV strain MR766 [1]; read-out: IC50, ZIKV infection): 0.04 µM | TBEV RVP infection (TBEV-RVP): almost undetectable | activation of the type I IFN response (IFN-β induction) [2]: substantially decreased and/or prevented | concentration sufficient to potently block the entry of SARS-CoV-2-GFP (SARS-CoV-2-GFP): 0.25 µM | concentration at which ZIKV-RVP infection was substantially inhibited (ZIKV-RVP): 0.25 to 0.50 µM | percent survival (ZIKV strain MR766 [3]; 0.1 mg/kg and 0.2 mg/kg dose (FIG. 8A)): improved | body weight of surviving mice (ZIKV strain MR766 [3]; 0.2 mg/kg and 1 mg/kg (FIGS. 8B and 8D)): able to regain lost body weight | survival (ZIKV strain MR766 [3]; 1 mg/kg (FIG. 8C)): 100% | time at which group succumbed to viral infection (ZIKV strain MR766 [3]; ZIKV + 0.1 mg/kg, footpad co-injection): 10 days post-challenge | appearance of symptoms (ZIKV strain MR766 [3]; ZIKV + 0.2 mg/kg, compared with ZIKV group): delay in the appearance of symptoms | survival (ZIKV strain MR766 [3]; ZIKV + 0.2 mg/kg, footpad co-injection): some mice survived until day 14 | disease symptoms (ZIKV strain MR766 [3]; ZIKV + 1 mg/kg): did not show any obvious disease symptoms | body weight (ZIKV strain MR766 [3]; ZIKV + 1 mg/kg compared to PBS + 1 mg/kg of DGP): lower body weights | mice surviving for the length of the experiment (ZIKV strain MR766 [3]; ZIKV + 1 mg/kg, 15 post-challenge days, 6 mice/group): all six mice
